Here are results for three compounds from patent US20260083830A1, “BIODEGRADABLE POLYMERIC PARTICLES FOR DELIVERY OF POSITIVELY CHARGED THERAPEUTIC AGENTS” (REGENTS OF THE UNIVERSITY OF MICHIGAN, priority 2022, published 2026).

For data set [1] the following is noted: previous studies; cited from earlier work.
The nature of data set [2]: Net charge of peptide at neutral pH. The format is physicochemical. The note with it: owing to 2 Arginine residues.
For data set [3], the system named is EAE. As to the kind of experiment: EAE murine model, effects of remote loaded nanoparticles on Treg response, EAE scores (Example IX). The format is in vivo, C57BL/6J mice. The settings on record: 10 ug subcutaneous by the tail base. As to the method:
EAE was induced in a murine model as described in Example VIII. There were 3 treatment groups and one group that only received phosphate-buffered saline (PBS). For the treatment groups, 10 ug of self-antigen in 1 mL PBS was aliquoted from the MOG 38-50 loaded PLGA nanoparticles batch based on loading % determined by UPLC. The first treatment group received remote loaded nanoparticles injected subcutaneously by the tail base. The second treatment group received remote loaded nanoparticles injected intravenously in the tail. The third treatment group received 10 ug of free MOG 38-50 peptide injected subcutaneously by the tail base. EAE was assessed daily using the 0 to 5 clinical score scale described in Example VII.

Data set [4] concerns EAE. Description: EAE murine model, intravenous versus subcutaneous administration of remote loaded nanoparticles (Example VIII). The format is in vivo, C57BL/6J mice. The settings on record: 100 ug subcutaneous by the tail base; after 60 days.

With `C[C@@H](O)[C@@H]1NC(=O)[C@H](CCCCN)NC(=O)[C@@H](Cc2c[nH]c3ccccc23)NC(=O)[C@H](Cc2ccccc2)NC(=O)[C@@H](NC(=O)[C@H](N)Cc2ccccc2)CSSC[C@@H](C(=O)N[C@H](CO)[C@@H](C)O)NC1=O` [octreotide], the “charge at neutral pH” value in data set [1] was “~+1.7”.

For the compound `CCNC(=O)[C@@H]1CCCN1C(=O)[C@H](CCCNC(=N)N)NC(=O)[C@H](CC(C)C)NC(=O)[C@@H](CC(C)C)NC(=O)[C@H](Cc1ccc(O)cc1)NC(=O)[C@H](CO)NC(=O)[C@H](Cc1c[nH]c2ccccc12)NC(=O)[C@H](Cc1c[nH]cn1)NC(=O)[C@@H]1CCC(=O)N1` [leuprolide], the “charge at neutral pH” value in data set [1] is “~+1”.

Take “MOG 38-50 (GWYRSPFSRVVHL) [free MOG 38-50 peptide]”: the charge result in data set [2] was “> +1”. The EAE score is roughly 3.0 with EAE [3] (after day 8) and roughly 2.5 in the data set with EAE [3] (day 8). Further, the EAE clinical score in the data set with EAE [4] is listed as 3.5.
